We go through 5 compounds from patent publication US10759781B2, “Substituted guanidine derivatives” (UBE INDUSTRIES, LTD., priority 2015, dated 2020).

One data set has as its target T1, Rat Plasma VAP-1 (Rattus norvegicus, UniProt O08590).
T1 construct: from tissue; host or cells: plasma of SD male rats (7-12 weeks old) after oral dosing
T1 sequence (O08590 28-763 limits assumed): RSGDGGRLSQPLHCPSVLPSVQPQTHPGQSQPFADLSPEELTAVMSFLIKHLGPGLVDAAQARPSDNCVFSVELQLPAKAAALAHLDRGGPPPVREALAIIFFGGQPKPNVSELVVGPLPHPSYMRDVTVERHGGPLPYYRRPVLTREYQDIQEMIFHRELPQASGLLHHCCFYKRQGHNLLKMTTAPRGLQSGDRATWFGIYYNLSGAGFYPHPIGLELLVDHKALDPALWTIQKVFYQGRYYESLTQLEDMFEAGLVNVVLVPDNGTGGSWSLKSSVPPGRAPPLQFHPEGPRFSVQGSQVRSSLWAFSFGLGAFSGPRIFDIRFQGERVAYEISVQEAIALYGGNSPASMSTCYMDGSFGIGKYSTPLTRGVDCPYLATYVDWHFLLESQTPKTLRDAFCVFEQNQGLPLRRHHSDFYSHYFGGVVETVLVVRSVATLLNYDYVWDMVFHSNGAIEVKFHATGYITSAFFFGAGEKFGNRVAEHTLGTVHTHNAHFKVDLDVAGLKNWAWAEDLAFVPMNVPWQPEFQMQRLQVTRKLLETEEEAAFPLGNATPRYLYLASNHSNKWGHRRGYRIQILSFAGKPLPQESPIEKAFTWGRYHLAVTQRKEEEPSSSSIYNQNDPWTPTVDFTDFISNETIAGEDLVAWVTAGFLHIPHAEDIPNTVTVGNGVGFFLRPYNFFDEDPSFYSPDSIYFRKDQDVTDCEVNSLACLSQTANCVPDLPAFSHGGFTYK
Description: (Ex vivo) rat plasma VAP-1 inhibition test after oral administration of the compound. The data set is classed as in vivo. The note with it: 3 hours after oral administration, SD male rats, read-out: inhibition ratio (plasma VAP-1, ex vivo). The essentials:
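Male SD rats, 7–12 weeks, non-fasted, dosed orally at 0.3–10 mg/kg; jugular blood taken predose and 3, 8 and 24 h after dosing. Plasma incubated with 2.5 μM 14C-benzylamine for 3 h at 37 °C; extracted product counted by scintillation. Inhibition expressed relative to each animal's predose plasma activity.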

The subject of data set [1] is Human normal glomerular microvascular endothelial cells. The data set is classed as cell-based. To be noted: 2 days, 100 nM. The method, then: The Cytotoxicity Inhibition Test in Human Normal Glomerular Microvascular Endothelial Cells
(§1) Human normal glomerular microvascular endothelial cells were plated at 6000 cells/well in a collagen-coated 96-well culture plate. After one day of culture, the medium at each well was completely removed by aspiration and replaced with 50 μL of the compound solution diluted with the basal medium. The basal medium containing 0.1% DMSO was added to control wells. Following, the plate was incubated in CO2 incubator for 30 minutes. Fifty microliter of 2 mM methylamine diluted with the basal medium was added (final concentration 1 mM) to each negative control well (0% inhibition) as well as the compound-containing well, and 50 μL of the basal medium was added to each positive control well (100% inhibition). The plate was incubated in CO2 incubator for 2 days. Ten microliter of CCK-8 was added to each well and the mixtures were incubated in a plate incubator at 37° C. for approximately 2 hours after stirring with a plate shaker. The absorbance of the mixtures at 450 nm was measured with a multiplate reader. The cytotoxicity inhibition ratio of the compound was calculated from the following equation. Inhibition ratio={[Average absorbance of the compound-containing wells]−[Average absorbance of negative control wells]}/{[Average absorbance of positive control wells]−[Average absorbance of negative control wells]}×100

Data set [2] deals with Human normal hepatic sinusoid-like microvascular endothelial cells. The class given is cell-based. The note with it: 2 days, 300 nM. The protocol: The Cytotoxicity Inhibition Test in Human Normal Hepatic Sinusoid-Like Microvascular Endothelial Cells
as §1, with “hepatic sinusoid-like” for “glomerular”

Another data set can be described thus: in vivo. The arrangement: species or system SD rats. The note with it: SD, rat, po, 3 mg/kg. The method, then: Rat Pharmacokinetic (PK) Study (Concentration of Compound in Plasma after Oral Administration)
Seven to eight week old SD rats (weighing 180 to 250 g) were orally administered with a suspension of the compound in 0.5 W/V % methylcellulose 400 solution. Under anesthesia, the blood was collected from the jugular vein in EDTA tubes at 0.25, 0.5, 1, 2, 4, 6, 8 and 24 hours after the administration of the compound. The blood was centrifuged at 4° C. and 6000 g for 3 minutes to give plasma. Acetonitrile was added to the plasma, and the mixture was stirred with a shaker at 750 rpm for 3 minutes and was deproteinized by centrifugation at 3700 rpm for 2 minutes. Thus, the obtained sample was analyzed by LC/MS under the following conditions.
The concentration of the compound in the plasma at each blood sampling time was determined by an internal standard method, and AUC all (Area Under Curve) was calculated by a trapezoidal method.
The following LC and MS systems were used for measurement.
LC: CBM 30 series manufactured by Shimadzu Corporation
Column: Phenomenex Kinetex C18 (50×2.1 mm, 2.6 μm)
Column temperature: 40° C.
Mobile phase A: 0.1% aqueous formic acid solution, mobile phase B: 0.1% formic acid,
50% acetonitrile/methanol mixture
MS: 3200 manufactured by SCIEX

In another data set the target is T2, Human VAP-1 enzyme (Homo sapiens, UniProt Q16853).
T2 construct: purchased R&D Systems, Inc
T2 sequence (Q16853 1-763): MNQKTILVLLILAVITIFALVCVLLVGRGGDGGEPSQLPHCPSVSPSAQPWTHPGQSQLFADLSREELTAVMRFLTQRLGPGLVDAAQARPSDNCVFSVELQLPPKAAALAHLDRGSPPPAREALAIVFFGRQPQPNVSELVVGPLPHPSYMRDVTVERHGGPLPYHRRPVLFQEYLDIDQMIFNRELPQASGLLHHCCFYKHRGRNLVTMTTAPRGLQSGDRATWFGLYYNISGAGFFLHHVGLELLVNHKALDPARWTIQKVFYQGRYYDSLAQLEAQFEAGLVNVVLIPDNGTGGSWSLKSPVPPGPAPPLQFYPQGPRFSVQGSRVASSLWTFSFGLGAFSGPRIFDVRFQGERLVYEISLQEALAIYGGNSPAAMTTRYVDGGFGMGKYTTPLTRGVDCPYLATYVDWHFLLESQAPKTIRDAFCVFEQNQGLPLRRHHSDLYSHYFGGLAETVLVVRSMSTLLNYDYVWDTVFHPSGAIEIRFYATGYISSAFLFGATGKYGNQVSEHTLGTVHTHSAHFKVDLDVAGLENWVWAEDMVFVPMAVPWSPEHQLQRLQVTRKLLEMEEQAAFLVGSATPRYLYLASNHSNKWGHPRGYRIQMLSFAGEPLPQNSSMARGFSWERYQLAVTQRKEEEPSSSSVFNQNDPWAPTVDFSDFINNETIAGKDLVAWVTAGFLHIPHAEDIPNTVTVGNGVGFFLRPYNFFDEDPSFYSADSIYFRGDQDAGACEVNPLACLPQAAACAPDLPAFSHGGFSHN
As to the kind of experiment: Human VAP-1 enzyme inhibition test. To be noted: 1 h; compound 30 nM; 14C-benzylamine 100 μM; read-out: inhibition ratio (human VAP-1 enzyme). The data set is classed as biochemical. The essentials: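 Recombinant human VAP-1 pre-incubated 20 min at room temperature with compound in DMSO, then reacted with 14C-benzylamine (100 μM final) 1 h at 37 °C. Citric acid stop; oxidized product extracted into toluene/ethyl acetate and counted by liquid scintillation. Inhibition ratio relative to DMSO-only activity.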

For orientation: AUC means the area under the concentration-time curve, a measure of exposure. The low end stands for low exposure, the high end for high exposure. For `CON=C1CN(c2ncc(-c3cccc(COC(=O)NC(=N)N)c3F)cn2)C1` [Example 1, 2-Fluoro-3-{2-[3-(methoxyimino)azetidin-1-yl]pyrimidin-5-yl}benzyl carbamimidoylcarbamate], on Rat Plasma VAP-1, the inhibition in vivo at 0.3 mg/kg was at least 50%. In addition, the cytotoxicity inhibition ratio in data set [1] and in data set [2] was at least 50% in each case. The compound also gave an AUC in the data set “in vivo” of at least 1000 ng·h/mL.

Regarding `CC(=O)OC1CC(ON=C2CN(c3ncc(-c4cccc(COC(=O)NC(=N)N)c4F)cn3)C2)C1` (centres unmarked) [Example 133, 3-[({1-[5-(3-{[(Carbamimidoylcarbamoyl)oxy]methyl}-2-fluorophenyl)pyrimidin-2-yl]azetidin-3-ylidene}amino)oxy]cyclobutyl acetate], the inhibition at 0.03 µM at Human VAP-1 enzyme was at least 50%. Further, the inhibition in vivo at 0.3 mg/kg at Rat Plasma VAP-1 was at least 50%. The cytotoxicity inhibition ratio in data set [1] and in data set [2] was at least 50% each time.

`N=C(N)NC(=O)OCc1cccc(-c2cnc(N3CC(=NOC4CC(O)C4)C3)nc2)c1F` (centres unmarked) [Example 134, 2-Fluoro-3-(2-{3-[(3-hydroxycyclobutoxy)imino]azetidin-1-yl}pyrimidin-5-yl)benzyl carbamimidoylcarbamate]: the inhibition at 0.03 µM on Human VAP-1 enzyme is at least 50%. In addition, at Rat Plasma VAP-1, the inhibition in vivo at 0.3 mg/kg was at least 50%. The cytotoxicity inhibition ratio in data set [1] and in data set [2] was at least 50% throughout.

On to `CS(=O)(=O)N1CC(ON=C2CN(c3ncc(-c4cccc(COC(=O)NC(=N)N)c4F)cn3)C2)C1` [Example 141, 2-Fluoro-3-{2-[3-({[1-(methylsulfonyl)azetidin-3-yl]oxy}imino)azetidin-1-yl]pyrimidin-5-yl}benzyl carbamimidoylcarbamate], for which the inhibition at 0.03 µM on Human VAP-1 enzyme is at least 50%. Also, at Rat Plasma VAP-1, the inhibition in vivo at 0.3 mg/kg was at least 50%. Moreover, the cytotoxicity inhibition ratio in data set [1] and in data set [2] was at least 50% throughout.

In the case of `N=C(N)NC(=O)OCc1cccc(-c2cnc(N3CC(=NOC4COC4)C3)nc2)c1F` [Example 144, 2-Fluoro-3-(2-{3-[(oxetan-3-yloxy)imino]azetidin-1-yl}pyrimidin-5-yl)benzyl carbamimidoylcarbamate], the inhibition at 0.03 µM at Human VAP-1 enzyme is at least 50%. In addition, the inhibition in vivo at 0.3 mg/kg at Rat Plasma VAP-1 is at least 50%. The cytotoxicity inhibition ratio in data set [1] and in data set [2] was at least 50% each time.
